Assay results: patent US5157020A, “Synthetic senescent cell antigen” (Research Corporation Tech., Inc., priority 1990, dated 1992)
Entries after “also recorded” stand apart in the source; their conditions may differ. Where a SMILES comes first, the peptide text is derived from it.

Columns and labels:
[1] = Solubility of peptides in physiologic solutions; type: physicochemical; conditions: even when coupled to BSA
Experimental: Peptides. Peptides were prepared by solid phase synthesis using an Applied Biosystems 430A automatic peptide synthesizer. They were analyzed by amino acid analysis, HPLC, sequencing, and/or FABS to determine purity. Amino acids are referred to by the standard single letter code. Peptides that are not soluble in phosphate buffered saline were dissolved in 1-2% NaDodSO4. Others were solubilized in acetic acid or trifluoroacetic acid, and sodium dodecyl sulfate (1-2%) is added. Once the peptides were in solution, they were conjugated to ovalbumin (5X crystallized) or BSA with 0.02% glutaraldehyde (32). The reaction was allowed to proceed for 30-60 min. blocked with ethanolamine, and the conjugate dialysed against PBS in tubing with a molecular weight cut off of ≤1000.

[2] = system: erythrocyte anion transport; experiment: Peptide inhibition of sulfate influx (anion transport) in erythrocytes; type: cell-based, human; conditions: for inhibition of anion transport (in words): equimolar amounts of peptide and sulfate
Experimental: Anion transport and DIDS inhibition measurements. Sulfate exchange is inhibited by […]. Stilbenedisulfonate derivatives such as DIDS inhibit anion transport by binding to at least two lysine residues in the membrane-spanning region of band 3 (45, 23, 35).
Peptide inhibition of sulfate "influx" experiments were performed essentially according to method of Jennings (46) using 300 mM sucrose, 10 mM Tris-HEPES, pH 7.0, as the "influx" buffer (47). Washed cells were incubated in 20-30 volumes of 110 mM K2 SO4 for 10 min at 37° C. to replace intracellular chloride. The cells were centrifuged and the supernatant removed and replaced with 110 mM K2 SO4 for 10 min. This was repeated 3 times. After the last centrifugation, cells were resuspended 300 mM sucrose, 10 mM Tris-HEPES, pH 7.0, and washed once. Cells were suspended to 2×10^8 cells/ml in 2 ml influx buffer at 37° C. Radioactive sulfate (0.01 mM) was added (582 mCi/mM) at suitable time intervals. Samples were taken and added to 18 volumes of ice cold 1.15% KCl (154 mM KCl) buffered to pH 7.4 with MOPS ("wash buffer"). The high chloride concentration, temperature, and pH all inhibit sulfate transport. Cells were washed twice to remove external sulfate at 0° C. with wash buffer. All samples were deproteinized with trichloracetic acid (final concentration 6.7%) and counted with Ready-Solv HP/6 (Beckman, Fullerton, Calif.) in a liquid scintillation counter. For peptide inhibition of sulfate transport, 0.01 mM of peptide(s) were added to the radioactive sulfate prior to addition to cells suspended in influx buffer.

[3] = system: senescent cell IgG; experiment: Immunoblotting of synthetic peptides with IgG autoantibody from senescent erythrocytes; type: binding, human; conditions: autoradiograph of immunoblot, FIG. 4
Experimental: Sodium dodecyl sulfate (NaDodSO4) polyacrylamide gel electrophoresis and immunostaining of peptides. Peptides were analyzed on 6-25% or 12-25% linear gels (6, 7, 27-29). Immunoautoradiography was performed by immunoblotting as described previously (6, 7, 28-30). Immunoblots were exposed to Kodak Ortho G (OG-1) film at -70° C. using our standard procedures (30, 45).
We used immunoblotting of the peptides followed by reaction with IgG eluted from senescent red cells (SCIgG) to localize the aging antigen site (FIG. 4A and B). We also used the IgG binding and inhibition assay at a singe concentration of peptide and performed Scatchard analysis (Table 2). […] Peptides that were negative by immunoblotting were also negative in the inhibition assay (FIG. 4 and Table 2).

[4] = system: senescent cell IgG; experiment: IgG binding and inhibition assay (competitive inhibition of senescent cell IgG binding to stored erythrocytes, 125I-Protein A); design: species or system human; conditions: for INHIBITION (%) of senescent cell IgG binding: Table 1, peptides 300 ug, senescent cell IgG 3 ug, 90 mins at room temperature, mean ± 1 SD of quadruplicate samples; for INHIBITION (%) of senescent cell IgG binding to erythrocytes, before or after DIDS modification: Table 4, 30 ug, stored red cells, ± SD, unmodified ANION 1 and COOH from a separate experiment; for inhibition of senescent cell IgG binding (in words): competitive inhibition assay
Experimental: IgG binding and inhibition assay. IgG was isolated from senescent RBC from 50 liters of blood and purified with Protein A Sepharose as previously described (2, 4). IgG eluted from senescent cells (SCIgG), rather than serum IgG, was used because normal serum contains antibodies to spectrin, actin, 2.1, etc. (28). Competitive inhibition studies were performed using synthetic peptides to absorb the IgG isolated from senescent erythrocytes. Intact dimeric, senescent cell IgG containing the Fc portion binds to senescent cells in situ and initiates their removal (1-7, 30). Fab fragments were not used because we were simulating the physiological situation. IgG isolated from aged erythrocytes binds specifically to senescent cells. […] Moreover, the specific binding capacity of the autoantibody was eliminated by absorption with purified senescent cell antigen (SCA; 7). […] Storage mimics normal aging in situ immunologically and biochemically (1-7, 30). The number of red cell-bound IgG molecules was quantitated before and after absorption using equilibrium binding kinetics (7, 30, 31). Details of the methods are given elsewhere (27). Percent inhibition was calculated from the following formula: 100[1-(x-b/T-b)] where x=molecules of IgG autoantibody bound per cell; T=total number of IgG antibody molecules bound in the absence of inhibitor; b=background Protein A binding.
Competitive inhibition studies were performed using synthetic peptides to absorb the IgG isolated from senescent erythrocytes. IgG binding and inhibition were determined with a protein A binding assay. This biological assay measures the fate of erythrocytes in vitro and in vivo (1, 2, 4).
IgG binding and inhibition assay. Competitive inhibition studies were performed using synthetic peptides to absorb the IgG isolated from senescent erythrocytes. This is the same IgG that initiates phagocytosis in situ. The Fc portion IgG is required for binding and phagocytosis of cells by macrophages (3, 2, 4, 7, 29). Fab fragments were not used because we were simulating the physiological situation. Intact dimeric, senescent cell IgG containing the Fc portion binds to senescent cells in situ and initiates their removal (3, 32, 2, 4, 6, 17, 7). Only IgG isolated from aged erythrocytes binds specifically to senescent cells. […] Moreover, the specific binding capacity of the autoantibody was eliminated by absorption with purified senescent cell antigen (39). […] Storage mimics normal aging in situ immunologically and biochemically (32, 2, 4, 6, 29, 7). After incubation with absorbed IgG, cells were washed four times with 40-50 volumes of phosphate buffered saline containing 0.2% bovine serum albumin (BSA, fraction V, Sigma, St. Louis, Mo.) and 0.5% glucose. Washed cells were transferred to BSA-coated tubes (5×10^7 cells/50 ul) and incubated for 30 min. at 37° C. with ^125 I-Protein A (Amersham, Arlington Heights, Ill. 30-38 mCi/mg, 10-15 ng/tube). Cells were then washed four times and transferred to new tubes before counting in a gamma scintillation counter (Beckman, Gamma 5,500). The number of red cell-bound IgG molecules was quantitated before and after absorption using equilibrium binding kinetics (7).
Scatchard analysis was performed. Scathard, NY Acad. Sci. 51:660-672 (1949), incorporated herein by reference. Percent inhibition was calculated from the following formula: 100[1-(x-b/T-b)] where x=molecules of IgG autoantibody bound per cell; T=total number of IgG antibody molecules bound in the absence of inhibitor; b=background Protein A binding.

[5] = at concentrations up to / as high as 100 ug
[6] = equimolar peptide and sulfate (0.01 mM)

| Molecule | solubility [1] | inhibition of anion transport (in words) [2] | binding of senescent cell IgG to peptide in immunoblots [3] | INHIBITION (%) of senescent cell IgG binding [4] [%] | inhibition of senescent cell IgG binding (in words) [4] | further results |
| --- | --- | --- | --- | --- | --- | --- |
| CC[C@H](C)[C@H](NC(=O)CNC(=O)[C@H](Cc1ccccc1)NC(=O)[C@H](CC(C)C)NC(=O)[C@@H](NC(=O)[C@H](C)NC(=O)[C@H](CC(C)C)NC(=O)[C@@H]1CCCN1C(=O)[C@@H](NC(=O)[C@H](CCCNC(=N)N)NC(=O)[C@H](CO)NC(=O)[C@H](CC(C)C)NC(=O)[C@@H](NC(=O)[C@@H]1CCCN1C(=O)[C@H](CCC(=O)O)NC(=O)[C@@H](N)CCSC)[C@@H](C)CC)[C@@H](C)CC)C(C)C)C(=O)N[C@@H](Cc1ccccc1)C(=O)N[C@@H](CC(C)C)C(=O)O [776-793, MEPILSRIPLAVLFGIFL] (H-MEPILSRIPLAVLFGIFL-OH) | not completely soluble |  |  |  |  |  |
| LFKPPKYHPDVPYVKR [COOH] |  | potent inhibitors of anion transport | binding | 99 ± 1 | inhibitory over a range of 3 to 100 ug | inhibition of anion transport ([2]; at 5 min, FIG. 7, compared to control without peptide): 52±3%; INHIBITION (%) of senescent cell IgG binding to erythrocytes, before or after DIDS modification [4]: 20 ± 1%; inhibition of senescent cell IgG binding [4, 5]: ≤ 50% |
| CC[C@H](C)[C@H](NC(=O)CNC(=O)[C@H](CO)NC(=O)[C@@H](N)CC(C)C)C(=O)N[C@@H](CCC(N)=O)C(=O)N[C@@H](CC(C)C)C(=O)N[C@@H](Cc1ccccc1)C(=O)N[C@@H](CC(=O)O)C(=O)N[C@@H](CCCNC(=N)N)C(=O)N[C@H](C(=O)N[C@@H](CC(C)C)C(=O)N[C@@H](CC(C)C)C(=O)N[C@@H](CC(C)C)C(=O)N[C@@H](Cc1ccccc1)C(=O)N[C@@H](CCCCN)C(=O)N1CCC[C@H]1C(=O)N1CCC[C@H]1C(=O)N[C@@H](CCCCN)C(=O)N[C@@H](Cc1ccc(O)cc1)C(=O)O)[C@@H](C)CC [800-818, LSGIQLFDRILLLFKPPKY] (H-LSGIQLFDRILLLFKPPKY-OH) | not completely soluble |  |  |  |  |  |
| SKLIKIFQDHPLQKTYN [ANION 1] |  | does not inhibit anion transport | trace binding | 88 ± 7 | inhibitory over a range of 3 to 100 ug | inhibition of anion transport [2, 6]: 8±7%; INHIBITION (%) of senescent cell IgG binding to erythrocytes, before or after DIDS modification [4]: 32 ± 2%; inhibition of senescent cell IgG binding [4, 5]: ≤ 50% |
| LRKFKNSSYFPGKLR [ANION 2] |  |  | bound | 30 ± 12 | only slightly inhibitory; also recorded: only weakly inhibitory | inhibition of anion transport [2, 6]: 38±4% |
| QKLSVPDGFKVSNSSARGW [GLYCOS] |  |  | Binding of antibody |  | only weakly inhibitory | INHIBITION (%) of senescent cell IgG binding to erythrocytes ([4]; Table 2, all peptides tested at 30 ug, ± standard deviation): 9 ± 0% |
| AGVANQLLDRFIFEDQ [CYTO, reference compound] |  |  |  | 0 | does not inhibit |  |
| YHPDVPYVKR [818-827] |  |  |  |  |  | percent inhibition of senescent cell IgG binding ([4]; FIG. 2 legend, 12.2 ug): 54±7; inhibition of senescent cell IgG binding ([4]; at 30 ug): 54±3% |
| CC[C@H](C)[C@H](NC(=O)CNC(=O)[C@H](CO)NC(=O)[C@H](CC(C)C)NC(=O)[C@H](CO)NC(=O)[C@@H](NC(=O)[C@@H](NC(=O)CNC(=O)[C@H](CCSC)NC(=O)[C@H](Cc1ccc(O)cc1)NC(=O)[C@H](CC(C)C)NC(=O)[C@H](Cc1ccccc1)NC(=O)[C@@H](NC(=O)CNC(=O)[C@@H](N)Cc1ccccc1)[C@@H](C)CC)C(C)C)[C@@H](C)O)C(=O)N[C@@H](CCC(N)=O)C(=O)N[C@@H](CC(C)C)C(=O)O [789-805, FGIFLYMGVTSLSGIQL] (H-FGIFLYMGVTSLSGIQL-OH) | not completely soluble |  |  |  |  |  |
| FKPPKY (UniProt P02730 813-818, looked up, fragment) [N6] |  | potent inhibitors of anion transport |  |  |  | inhibition of senescent cell IgG binding ([4]; at 10 ug): 48±1%; inhibition of senescent cell IgG binding ([4]; at 10 ug, listed as COOH hexamer (N6)): ~ 50% |
